Results taken from article PMC12048343, “Discovery of a small molecule secreted clusterin enhancer that improves memory in Alzheimer’s disease mice” (npj Drug Discovery, 2025).

Assays:
[1] = In-vivo pharmacokinetics, brain levels after oral administration; settings: mice
Procedure: Following oral administration of compound, mice brain tissue and plasma were collected after euthanasia and perfusion at 1, 2, 4, 6 and 8 h. All animals will be euthanized by ketamine/xylazine injection to allow cardiac puncture and saline perfusion, which is consistent with recommendations of the AVMA Panel on Euthanasia. Brain tissue were homogenized in a bead beater using 5 volumes of ice-cold 80% acetonitrile (1/5; mg of brain/µL of 80% ACN). Plasma analytes were extracted using 4 volumes of ice-cold acetonitrile (1/4; µL of plasma/µL of ACN). Solutions were clarified by centrifugation (16,000 x g, 5 min) and the supernatants were transferred to new tubes and lyophilized. Samples were reconstituted in 100 µL of 50/50/0.1 (Water/Acetonitrile/Formic Acid) prior to analysis via liquid chromatography-tandem mass spectrometry (LC-MS/MS). An internal standard (IS) was added to every sample to account for compound loss during sample processing. Standards were made in drug naïve plasma and brain lysates with increasing amounts of analyte (S1,S2: 0 pmol/ S3,S4: 1 pmol/ S5,S6: 10 pmol/ S7,S8: 100 pmol, S9,S10: 1000 pmol). The standard curve was made by plotting the known amount of analyte per standard vs. the ratio of measured chromatographic peak areas corresponding to the analyte over that of the IS (analyte/IS). The trendline equation was then used to calculate the absolute concentrations of each compound in plasma and brain tissue.
Analysis of compound levels was done at the UCLA Pasarow Mass Spectrometry Lab (PMSL; Julian Whitelegge, Ph.D., Director). A targeted LC-MS/MS assay was developed for each compound using the multiple reaction monitoring (MRM) acquisition method on a 6460 triple quadrupole mass spectrometer (Agilent Technologies) coupled to a 1290 Infinity HPLC system (Agilent Technologies) with a Phenomenex analytical column (Kinetex 1.7 µm C18 100 Å 100 ×2.1 mm). The HPLC method utilized a mixture of solvent A ([…]) and solvent B ([…]) and a gradient was use for the elution of the compounds (min/%B: 0/1, 3/1, 19/99, 20/1, 30/1). Two fragment ions originating from each compound were monitored at specific LC retention times to ensure specificity and accurate quantification in the complex biological samples. The normalized chromatographic peak areas were determined by taking the ratio of measured chromatographic peak areas corresponding to each compound over that of the internal standard (Analyte/IS).

[2] = tested on: U-87 MG cells; experiment: Cytotoxicity, MultiTox-Fluor (CNS gliotoxicity); settings: U-87 MG, up to 50 µM
Description: Cell viability and toxicity were simultaneously assessed using the MultiTox-Fluor Multiplex Cytotoxicity Assay (Cat# PRG9200, Fisher Scientific) according to the manufacturer’s protocol.

[3] = target: hERG potassium channel (Homo sapiens, UniProt Q12809); experiment: hERG potassium channel inhibition assay
Sequence of hERG potassium channel (Q12809 whole entry): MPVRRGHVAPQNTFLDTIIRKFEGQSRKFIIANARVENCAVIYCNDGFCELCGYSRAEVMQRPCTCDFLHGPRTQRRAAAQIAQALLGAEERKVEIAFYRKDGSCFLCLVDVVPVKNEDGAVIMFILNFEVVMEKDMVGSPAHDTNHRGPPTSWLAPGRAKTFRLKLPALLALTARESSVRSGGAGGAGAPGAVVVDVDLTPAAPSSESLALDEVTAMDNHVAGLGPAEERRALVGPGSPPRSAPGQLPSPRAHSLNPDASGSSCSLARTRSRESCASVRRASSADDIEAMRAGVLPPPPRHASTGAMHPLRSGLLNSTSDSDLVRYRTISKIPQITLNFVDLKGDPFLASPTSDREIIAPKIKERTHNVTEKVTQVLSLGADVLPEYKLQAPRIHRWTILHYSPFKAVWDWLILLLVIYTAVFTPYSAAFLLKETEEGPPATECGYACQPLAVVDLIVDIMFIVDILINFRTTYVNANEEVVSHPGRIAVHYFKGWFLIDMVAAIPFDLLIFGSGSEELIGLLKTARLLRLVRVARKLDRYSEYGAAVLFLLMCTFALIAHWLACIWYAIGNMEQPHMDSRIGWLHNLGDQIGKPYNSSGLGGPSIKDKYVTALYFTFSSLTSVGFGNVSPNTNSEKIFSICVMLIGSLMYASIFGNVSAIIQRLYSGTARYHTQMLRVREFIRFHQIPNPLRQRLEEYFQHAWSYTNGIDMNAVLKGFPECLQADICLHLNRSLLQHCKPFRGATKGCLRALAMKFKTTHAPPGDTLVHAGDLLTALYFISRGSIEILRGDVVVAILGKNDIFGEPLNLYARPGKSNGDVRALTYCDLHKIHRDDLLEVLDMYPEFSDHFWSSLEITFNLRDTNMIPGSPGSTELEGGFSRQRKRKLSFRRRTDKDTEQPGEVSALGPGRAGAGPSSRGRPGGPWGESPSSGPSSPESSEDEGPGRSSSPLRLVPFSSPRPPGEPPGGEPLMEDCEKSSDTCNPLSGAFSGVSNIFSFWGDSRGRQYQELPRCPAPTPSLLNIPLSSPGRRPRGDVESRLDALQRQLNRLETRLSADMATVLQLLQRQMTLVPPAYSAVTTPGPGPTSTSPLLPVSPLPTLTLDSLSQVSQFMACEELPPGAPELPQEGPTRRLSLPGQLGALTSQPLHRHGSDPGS

[4] = tested on: SH-SY5Y cells; experiment: Cytotoxicity, MultiTox-Fluor (neurotoxicity); format: cell-based, human; settings: up to 50 µM
[5] = tested on: HEK 293 T cells; experiment: Cytotoxicity, MultiTox-Fluor (nephrotoxicity); format: cell-based; settings: up to 50 µM
[6] = tested on: SH-SY5Y neuronal cells; experiment: Oxygen consumption rate in SH-SY5Y cells; format: cell-based, human; settings: 24 h, 8, 40 and 200 nM, dose-dependent

Structure (SMILES) | unbound brain concentration versus sCLU EC50 ([1]; oral 3, 10 or 30 mg/kg (Fig. S6)) | unbound brain concentration versus sCLU EC50 ([1]; oral 3 mg/kg, one hour post administration) | unbound brain concentration versus sCLU EC50 ([1]; oral 10 mg/kg, one hour post administration) | maximum brain concentration (total) ([1]; oral 30 mg/kg, one hour after administration) | concentration at 1 h ([1]; mouse, oral 30 mg/kg, 1 h, from total brain level and brain tissue binding 75.3%, read-out: unbound brain concentration) | Ctox [2] | EC50 [3] | Ctox [4] | Ctox [5] | oxygen consumption rate [6]
Cc1sc2c(c1C)C(c1ccc(Cl)cc1)=N[C@@H](CC(=O)OC1COC1)c1nnc(C)n1-2 [DDL-356] | reaches higher concentrations of unbound drug in the brain above its sCLU EC50 at lower doses |  |  |  |  |  |  |  |  | 
Cc1sc2c(c1C)C(c1ccc(Cl)cc1)=N[C@@H](CC(=O)OC1CC1)c1nnc(C)n1-2 [DDL-357] |  | below the sCLU EC50 | below the sCLU EC50 | 1850 nM | 457 nM | ≥ 50 µM | > 100 µM | ≥ 50 µM | ≥ 50 µM | increased the oxygen consumption rate
